Patent publication US8334299B2, “β-carboline for the treatment of neurodegenerative diseases” (Ellneuroxx, Ltd., priority 2007, dated 2012)

B1: GDNF: the protein glial cell line-derived neurotrophic factor, infused in Parkinson patients (Love et al.) (protein, UniProt P39905 78-211, looked up)
Glial cell line-derived …: SPDKQMAVLPRRERNRQAAAANPENSRGKGRRGQRGKNRGCVLTAIHLNVTDLGLGYETKEELIFRYCSGSCDAAETTYDKILKNLSRNRRLVSDKVGQACCRPIAFDDDLSFLDDNLVYHILRKHSAKRCGCI

System: dopaminergic neurons in the anterior putamen
Assay: not given
Details: patients suffering from Parkinson's disease, infusion; cited from earlier work
In the case of B1, the “cellular extensions of dopaminergic neurons in the anterior putamen” value is listed as “growth of cellular extensions” and the clinical symptoms is listed as “improvement in clinical symptoms”.

System: dopamine concentration in the striatum
Assay: Chronic MPP+ infusion model of Parkinson's disease, dopamine concentration in the striatum
Format: in vivo, rat
Set-up: key to Anti-Parkinson test in comparison to 9-methyl-β-carboline: +: slightly better than 9-methyl-β-carboline; ±: the same as 9-methyl-β-carboline; −: slightly worse than 9-methyl-β-carboline
Details: tested as described in example 8
From the text: In the diagram the dopamine (DA) levels of the left and right striatum of the single rats are indicated.
To investigate Parkinson's disease acute in vivo models are used for years although chronic models would be a better model for the disease. Another disadvantage of the acute models is that ca. 40% of the animals die from the application of the neurotoxin. Therefore, we have chosen a chronic model in which comparably very low doses of neurotoxin 1-methyl-4-phenylpyridinium (MPP^+) were infused for 28 days into the left lateral ventricle of the rat brain. The substance was continuously applied through osmotic minipumps. Thereby, casualties were completely avoided. After four weeks, either solvent or equimolar amounts of the sample substance, namely neuroprotective betacarboline, resp. 9-alkyl-betacarboline was infused for two weeks via the same catheter. In a preliminary study for dose-finding the MPP^+ dose which leads to a reduction by 40% of the dopamine concentration in the striatum was determined. The dopamine concentration in the striatum is a characteristic marker for Parkinson's disease in which a degeneration of dopaminergic neurons occurs.
The compounds A to L were tested as described in example 8. The test results of the compounds A to L are indicated in the following table in comparison to 9-methyl-β-carboline.
In the case of CCCn1c2ccccc2c2ccncc21 [Compound A], the “Anti-Parkinson test in comparison to 9-methyl-β-carboline” value (“Anti-Parkinson test in comparison” below) is reported as “+”. For CCCCCCn1c2ccccc2c2ccncc21 [Compound B], the “Anti-Parkinson test in comparison” value was “±”. With CCCCCCCCCCCCCCn1c2ccccc2c2ccncc21 [Compound C] the “Anti-Parkinson test in comparison” value was “±”. For C=CCn1c2ccccc2c2ccncc21 [Compound D], the “Anti-Parkinson test in comparison” value was “+”. For CC(C)Cn1c2ccccc2c2ccncc21 [Compound E], the “Anti-Parkinson test in comparison” value was “+”. In the case of CCn1c2ccccc2c2ccncc21 [Compound F], the “Anti-Parkinson test in comparison” value is reported as “±”. For COCCn1c2ccccc2c2ccncc21 [Compound G], the “Anti-Parkinson test in comparison” value was “±”. With C#CCn1c2ccccc2c2ccncc21 [Compound H] the “Anti-Parkinson test in comparison” value was “+”. For c1ccc(Cn2c3ccccc3c3ccncc32)cc1 [Compound I], the “Anti-Parkinson test in comparison” value was “−”. For COC(=O)CCn1c2ccccc2c2ccncc21 [Compound J], the “Anti-Parkinson test in comparison” value was “±”. In the case of CC(C)C(C)Cn1c2ccccc2c2ccncc21 (centres unmarked) [Compound K], the “Anti-Parkinson test in comparison” value is reported as “±”. For CN(C)CCn1c2ccccc2c2ccncc21 [Compound L], the “Anti-Parkinson test in comparison” value was “+”.
